Assay: xn = mol fraction of the nth substance listed

O=CN1CCOCC1 + Clc1ccccc1
viscosity [mPa·s], 101 kPa
Settings	x1 = 0.1017	x1 = 0.203	x1 = 0.3039	x1 = 0.4045	x1 = 0.5046	x1 = 0.6044	x1 = 0.7039	x1 = 0.8029	x1 = 0.9017
303.15 K	0.844	1.034	1.274	1.58	1.966	2.471	3.125	3.981	5.096
308.15 K	0.801	0.973	1.186	1.455	1.793	2.233	2.8	3.529	4.465
313.15 K	0.753	0.911	1.105	1.351	1.656	2.05	2.56	3.21	4.04

S=C=S + CC(C)=O
viscosity [mPa·s]
Settings	293.15 K	298.15 K
101 kPa, x1 = 0.035	0.32	0.3065
101 kPa, x1 = 0.107	0.316	0.3025
101 kPa, x1 = 0.167	0.315	0.3015
101 kPa, x1 = 0.202	0.314	0.301
101 kPa, x1 = 0.304	0.316	0.3015
101 kPa, x1 = 0.408	0.319	–
101 kPa, x1 = 0.498	0.324	0.31
101 kPa, x1 = 0.633	0.3325	0.3185
101 kPa, x1 = 0.762	0.343	–
101 kPa, x1 = 0.89	0.354	0.3365
101.33 kPa, x2 = 0.1384	–	0.3361
101.33 kPa, x2 = 0.2716	–	0.3258
101.33 kPa, x2 = 0.3443	–	0.3242
101.33 kPa, x2 = 0.4624	–	0.3103
101.33 kPa, x2 = 0.5524	–	0.3035
101.33 kPa, x2 = 0.6431	–	0.3003
101.33 kPa, x2 = 0.7358	–	0.2975
101.33 kPa, x2 = 0.8389	–	0.2974
101.33 kPa, x2 = 0.9171	–	0.2993

NCc1ccccc1 + C1CCOC1
303.15 K, 101 kPa
Settings	viscosity [mPa·s]
x1 = 0.0768	0.522
x1 = 0.1577	0.576
x1 = 0.2429	0.636
x1 = 0.333	0.705
x1 = 0.4282	0.785
x1 = 0.529	0.876
x1 = 0.636	0.981
x1 = 0.7497	1.104
x1 = 0.8708	1.247

CC(C)[C@H](NC(=O)[C@H](C)N)C(=O)O + O
viscosity [mPa·s], 101 kPa
Settings	x1 = 3.62e-05	x1 = 7.46e-05	x1 = 0.000109	x1 = 0.000142	x1 = 0.0001835	x1 = 0.0002124	x1 = 0.0002514	x1 = 0.0002793	x1 = 0.0003251	x1 = 0.0003549
305.15 K	0.7756	0.7779	0.7783	0.7805	0.7822	0.7866	0.7955	0.8038	0.8095	0.8143
310.15 K	0.7078	0.7083	0.7121	0.7125	0.7162	0.7192	0.7239	0.7284	0.7327	0.7351
315.15 K	0.647	0.6501	0.6523	0.6554	0.6591	0.6601	0.6623	0.6675	0.6689	0.6701

CCCCCC(C)O (stereo not given) + CN(C)C=O
viscosity [mPa·s], 101 kPa
Settings	x2 = 0.1086	x2 = 0.153	x2 = 0.24	x2 = 0.3446	x2 = 0.4409	x2 = 0.5599	x2 = 0.6544	x2 = 0.7432	x2 = 0.8428	x2 = 0.9372
298.15 K	4.28	4	3.56	3.15	2.78	2.35	2.01	1.68	1.34	1.03
303.15 K	3.46	3.21	2.85	2.52	2.25	1.92	1.67	1.42	1.17	0.93
308.15 K	2.79	2.6	2.31	2.04	1.83	1.58	1.4	1.22	1.03	0.84
313.15 K	2.32	2.15	1.91	1.69	1.53	1.34	1.2	1.07	0.91	0.77

O=CN1CCOCC1 + Cc1ccccc1C
viscosity [mPa·s]
Settings	298.15 K	303.15 K	313.15 K	323.15 K
101 kPa, x2 = 0.1	5.936	5.18	4.063	3.294
101 kPa, x2 = 0.2	4.582	4.054	3.243	2.671
101 kPa, x2 = 0.3	3.602	3.231	2.627	2.194
101 kPa, x2 = 0.4	2.87	2.584	2.142	1.8
101 kPa, x2 = 0.5	2.233	2.034	1.71	1.467
101 kPa, x2 = 0.6	1.744	1.583	1.347	1.161
101 kPa, x2 = 0.7	1.385	1.271	1.08	0.9316
101 kPa, x2 = 0.8	1.122	1.034	0.8894	0.7789
101 kPa, x2 = 0.9	0.9104	0.8483	0.7328	0.6556
101.3 kPa, x2 = 0.05737	6.316	–	–	–
101.3 kPa, x2 = 0.1297	4.989	–	–	–
101.3 kPa, x2 = 0.2312	3.617	–	–	–
101.3 kPa, x2 = 0.5161	1.652	–	–	–
101.3 kPa, x2 = 0.5998	1.343	–	–	–
101.3 kPa, x2 = 0.6877	1.088	–	–	–
101.3 kPa, x2 = 0.7767	0.908	–	–	–
101.3 kPa, x2 = 0.9523	0.635	–	–	–

C=CCN=C=S + CCN(CC)c1ccccc1
303.15 K, 101 kPa
Settings	viscosity [mPa·s]
x1 = 0.25	1.248
x1 = 0.5	1.007
x1 = 0.7	0.857
x1 = 0.75	0.822
x1 = 0.8	0.785

O=CN1CCOCC1 + Brc1ccccc1
viscosity [mPa·s], 101 kPa
Settings	x1 = 0.1046	x1 = 0.2081	x1 = 0.3106	x1 = 0.412	x1 = 0.5124	x1 = 0.6119	x1 = 0.7103	x1 = 0.8078	x1 = 0.9044
303.15 K	1.051	1.188	1.392	1.666	2.029	2.502	3.141	3.952	5.052
308.15 K	1.002	1.119	1.297	1.538	1.858	2.274	2.809	3.511	4.419
313.15 K	0.953	1.057	1.22	1.442	1.727	2.105	2.585	3.211	4.012

NCc1ccccc1 + CCCCN
viscosity [mPa·s], 100 kPa
Settings	x2 = 0.1	x2 = 0.2	x2 = 0.3	x2 = 0.4	x2 = 0.5	x2 = 0.6	x2 = 0.7	x2 = 0.8	x2 = 0.9
303.15 K	1.324	1.204	1.068	0.964	0.847	0.748	0.654	0.578	0.513
313.15 K	1.125	1.021	0.929	0.835	0.737	0.642	0.567	0.506	0.45
323.15 K	0.965	0.878	0.791	0.718	0.639	0.567	0.5	0.446	0.396

O=CN1CCOCC1 + c1ccccc1
298.15 K, 101.3 kPa
Settings	viscosity [mPa·s]
x2 = 0.03787	6.858
x2 = 0.07912	6.137
x2 = 0.1309	5.329
x2 = 0.22	4.199
x2 = 0.3483	2.992
x2 = 0.4314	2.381
x2 = 0.5526	1.734
x2 = 0.6351	1.413
x2 = 0.7176	1.157
x2 = 0.7536	1.058
x2 = 0.83	0.88
x2 = 0.894	0.767
x2 = 0.9506	0.671

O=C1c2ccccc2C(=O)N1c1ccccc1 + c1ccncc1
Settings	viscosity [mPa·s]
298.15 K, 101 kPa, x1 = 0.0129	0.9606

CC(C)NC(C)C + CC(C)CO
viscosity [mPa·s], 100 kPa
Settings	298.15 K	303.15 K	308.15 K
x1 = 0.0559	2.916	2.467	2.005
x1 = 0.1015	2.616	2.232	1.833
x1 = 0.1519	2.295	1.98	1.662
x1 = 0.2069	1.995	1.738	1.459
x1 = 0.2516	1.765	1.549	1.319
x1 = 0.3055	1.507	1.346	1.155
x1 = 0.3944	1.194	1.067	0.931
x1 = 0.4988	0.926	0.837	0.743
x1 = 0.6017	0.73	0.674	0.607
x1 = 0.7131	0.586	0.553	0.509
x1 = 0.8018	0.504	0.485	0.448
x1 = 0.865	0.455	0.441	0.409
x1 = 0.9062	0.433	0.419	0.395
x1 = 0.9423	0.409	0.396	0.379

CCOC(=O)CC(C)=O + CCCCCO
viscosity [mPa·s], 100 kPa
Settings	x1 = 0.0902	x1 = 0.1791	x1 = 0.2695	x1 = 0.3621	x1 = 0.4424	x1 = 0.5633	x1 = 0.6447	x1 = 0.7739	x1 = 0.8864
293.15 K	2.988	2.424	2.132	1.935	1.8	1.67	1.635	1.603	1.599
298.15 K	2.691	2.191	1.897	1.705	1.602	1.52	1.491	1.481	1.468

OCCO + CC#N
viscosity [mPa·s], 100 kPa
Settings	x2 = 0.1016	x2 = 0.2004	x2 = 0.3019	x2 = 0.3984	x2 = 0.4901	x2 = 0.6353	x2 = 0.6987	x2 = 0.8061	x2 = 0.8984
293.15 K	13	8.4	5.53	3.48	2.4	1.35	1.06	0.71	0.51
298.15 K	11.2	7.41	4.87	3.19	2.21	1.25	0.98	0.66	0.48
303.15 K	9.25	6.17	4.25	2.85	2.01	1.17	0.93	0.63	0.45

NCc1ccccc1 + C1COCCO1
303.15 K, 101 kPa
Settings	viscosity [mPa·s]
x1 = 0.0802	1.116
x1 = 0.164	1.158
x1 = 0.2516	1.199
x1 = 0.3434	1.238
x1 = 0.4396	1.276
x1 = 0.5406	1.311
x1 = 0.6467	1.343
x1 = 0.7584	1.372
x1 = 0.8759	1.396

CCCCCCCCCc1ccccc1 + CCCCCCCCCCCC
viscosity [mPa·s], 102 kPa
Settings	x1 = 0.1006	x1 = 0.2	x1 = 0.3002	x1 = 0.4001	x1 = 0.5	x1 = 0.5999	x1 = 0.7004	x1 = 0.8064	x1 = 0.8998
293.15 K	1.59	1.69	1.81	1.94	2.09	2.25	2.44	2.66	2.88
303.15 K	1.33	1.41	1.5	1.61	1.72	1.84	1.99	2.15	2.31
313.15 K	1.13	1.2	1.27	1.35	1.44	1.54	1.65	1.78	1.9
323.15 K	0.971	1.03	1.09	1.16	1.23	1.31	1.4	1.5	1.59

S=C=S + ClC(Cl)(Cl)Cl
101 kPa
Settings	viscosity [mPa·s]
293.15 K, x1 = 0.223	0.74
293.15 K, x1 = 0.526	0.52
293.15 K, x1 = 0.628	0.47
293.15 K, x1 = 0.718	0.43
293.15 K, x1 = 0.794	0.41
293.15 K, x1 = 0.85	0.39
293.15 K, x1 = 0.914	0.38
298.15 K, x1 = 0.1	0.7919
298.15 K, x1 = 0.2	0.7079
298.15 K, x1 = 0.3	0.6441
298.15 K, x1 = 0.4	0.591
298.15 K, x1 = 0.5	0.5423
298.15 K, x1 = 0.6	0.4948
298.15 K, x1 = 0.7	0.4484
298.15 K, x1 = 0.8	0.4061
298.15 K, x1 = 0.9	0.3741

OCCO + CCO
viscosity [mPa·s], 101 kPa
Settings	x1 = 0.1	x1 = 0.2	x1 = 0.3	x1 = 0.3778	x1 = 0.4	x1 = 0.5	x1 = 0.6	x1 = 0.7	x1 = 0.8	x1 = 0.9
298.15 K	1.439	1.908	2.546	3.567	3.382	4.487	5.986	7.908	10.41	13.61
308.15 K	1.05	1.524	1.991	2.688	2.581	3.346	4.363	5.645	7.295	9.374
318.15 K	0.9744	1.253	1.604	2.13	2.053	2.598	3.325	4.216	5.306	6.652

CCCCCCCCCc1ccccc1 + CCCCCCC
313.15 K, 100 kPa
Settings	viscosity [mPa·s]
x2 = 0.097	1.82
x2 = 0.265	1.398
x2 = 0.405	1.111
x2 = 0.523	0.918
x2 = 0.671	0.691
x2 = 0.754	0.59
x2 = 0.86	0.411

Source: the CheMixHub viscosity set
